In the supplement of paper PMC3974653:
Where a name gives a salt, the structure may show the parent alone.

Test system: MTT (mouse pheochromocytoma)
Assay: IC50 of cell viability (ATP content)
Settings: (24 or 48 h)
Summary of the method: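 MTT mouse pheochromocytoma cells in white 1536-well plates were treated for 24 or 48 hrs with library compounds at 8 final concentrations from 0.5 nM to 46 µM. ATP content was measured with CellTiter-Glo luminescence, using positive-control wells as 100% and DMSO wells as 0%. IC50 came from a four-parameter logistic fit.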

Compound	IC50 of cell viability
O[C@H]1\C=C/C2[C@H]3CC4=CC=C(O)C5=C4[C@@]2(CCN3)[C@H]1O5 (some centres not stated) [Normorphine]	> 46 µM
COc1ccc2c(c1OC)C(=O)O[C@H]2[C@H]1c2c(cc3c(c2OC)OCO3)CCN1C [Noscapine]	> 46 µM
[Na+].CO[C@H]1[C@@H](OC(N)=O)[C@@H](O)[C@H](OC2=C(C)C3=C(C=C2)\C(=C(\NC(=O)C4=CC(=C([O-])C=C4)CC=C(C)C)C(=O)O3)O)OC1(C)C [Novobiocin sodium salt]	> 46 µM
C[C@H]1[C@H](O)[C@@H](C)/C=C/C=C/CC/C=C/C=C/C=C/C=C/[C@H](O[C@@H]2O[C@H](C)[C@@H](O)[C@H](N)[C@@H]2O)C[C@@H]2O[C@](O)(C[C@@H](O)[C@H](O)CC[C@@H](O)C[C@@H](O)C[C@@H](O)CC(=O)O[C@H]1C)C[C@H](O)[C@H]2C(=O)O [Nystatin]	> 46 µM
CCCCCCCCOc1ccc(C(=O)c2ccccc2)c(O)c1 [OCTABENZONUM]	> 46 µM
CCOc1cc(-c2nccc3cc(OC)c(OC)cc23)cc(OCC)c1OCC [OCTAVERINUM]	> 46 µM
CC(C)CCCC(C)N (configuration not stated) [OCTODRINUM]	> 46 µM
CC(C)(C)CC(C)(C)c1ccc(O)c(-n2nc3ccccc3n2)c1 [OCTRIZOLUM]	> 46 µM
CCCCCCCCCCC(CO)CCCCCCCC (configuration not stated) [OCTYLDODECANOL]	> 46 µM
CCCCCCCCOc1ccccc1C(=O)Nc1ccc(C(=O)OCC[N+](C)(CC)CC)cc1 [OCTYLONIUM BROMIDE]	> 46 µM
CCCC1=NC(=C([N]1CC2=CC=C(C=C2)C3=CC=CC=C3C4=N[NH]N=N4)C(=O)OCC/5=C(C)/OC(=O)O5)C(C)(C)O [OLMESARTAN MEDOXOMIL]	> 46 µM
CN(C)CC/C=C1\c2ccccc2COc2ccc(CC(=O)O)cc21 [OLOPATADINE HYDROCHLORIDE]	> 46 µM
O=C([O-])c1cc(/N=N/c2ccc(O)c(C(=O)[O-])c2)ccc1O [OLSALAZINE SODIUM]	> 46 µM
CCN(CC)c1ccc(/N=N/c2ccc([S+](=O)([O-])N(C)C)cc2)c([S+](=O)([O-])NCC[n+]2ccccc2)c1 [ORANGE OIL]	> 46 µM
CCCCCCCCCCCC(CC1OC(=O)C1CCCCCC)OC(=O)C(CC(C)C)NC=O (configuration not stated) [ORLISTAT]	> 46 µM
COc1ccc2c(c1)OC(C)(C)C(c1ccccc1)C2c1ccc(OCCN2CCCC2)cc1 (configuration not stated) [ORMELOXIFENUM]	> 46 µM
COc1cc(C)c(Cc2cnc(N)nc2N)cc1OC [ORMETOPRIM]	> 46 µM
Cc1ccccc1C(OCCN(C)C)c1ccccc1.O=C(O)CC(O)(CC(=O)O)C(=O)O (configuration not stated) [ORPHENADRINE CITRATE]	> 46 µM
CCOC(=O)C/1=C/C(OC(CC)CC)C(NC(C)=O)C(N)C1.OC(C(O)C(O)=O)C(O)=O (configuration not stated) [OSELTAMIVIR TARTRATE]	> 46 µM
O=C([O-])c1nc(O)nc(O)n1 [OTERACIL POTASSIUM]	> 46 µM
CC1OC(O[C@H]2C[C@@H](O)[C@]3(CO)[C@H]4[C@H](O)C[C@]5(C)[C@@H](C6=CC(=O)OC6)CC[C@]5(O)[C@@H]4CC[C@]3(O)C2)C(O)C(O)C1O (some centres not stated) [OUABAIN]	> 46 µM
CC12CCC3C4CCC(=O)C(O)=C4CCC3C1CCC2OC(=O)CCC1CCCC1 (configuration not stated) [OXABOLONE CIPIONATE]	> 46 µM
